Reference: US11111245B2, “Derivatives of N-cycloalkyl/heterocycloalkyl-4-(imidazo[1,2-a]pyridine)pyrimidin-2-amine as therapeutic agents” (Aucentra Therapeutics Pty Ltd, priority 2017, dated 2021)

How the values were obtained:
Assay type in all cases: biochemical
CDK4/D1 = CDK4/D1 (Homo sapiens, UniProt P11802); assay: ADP Glo Kinase assay CDK4/D1; details: CDK4D1; compound at 10 μM; read-out: residual activity (%) at 10 μM CDK4D1
Procedure: (§1) Eurofins Pharma Discovery or Reaction Biology Corporation Kinase Profiler services were used to measure inhibition of CDKs and other kinases by radiometric assay. Inhibition of CDK4/D1, CDK6/D3 and CDK9/T1 were also determined in-house using ADP Glo Kinase assays (Promega Corporation, Madison, USA). Briefly, the kinase reaction for CDK4/D1 and CDK6/D3 was performed with kinase reaction buffer ([…] Tris base pH 7.5, 20 mM MgCl2, 0.4 mM DTT), 0.1 mg/ml BSA and RB-CTF substrate (retinoblastoma protein 1 C-terminal fraction). For CDK9/CyclinT1, the kinase reaction was performed with standard assay buffer and Kinase Dilution Buffer and RBER-IRStide substrate. Serial dilutions of 1:3 were prepared for test compounds for 10 concentrations (from 10 μM to 0.5 nM). The kinase reactions were started by addition of ATP, incubated for 40 min at 37° C. and then stopped by adding 10 μL of ADP Glo reagent. After incubation at room temperature in the dark for 40 min, 20 μL of kinase detection reagent was added per well and incubated for 40 min. Luminescence was measured using an EnVision Multilabel plate reader (PerkinElmer, Buckinghamshire, UK). Positive and negative controls were performed in the presence and absence of CDK kinases, respectively. Half-maximal inhibition (IC50) values were calculated using a 4-parameter logistic non-linear regression model with Graphpad prism (Version 6.0). Apparent inhibition constants (Ki) values were calculated from Km (ATP) and IC50 values for the respective kinases.

CDK9/T1 = CDK9/T1 (Homo sapiens, UniProt P50750); assay: ADP Glo Kinase assay CDK9/T1; details: CDK9T1; read-out: CDK inhibition, Ki (μM) CDK9T1
Chain of CDK9/T1 (P50750 whole entry): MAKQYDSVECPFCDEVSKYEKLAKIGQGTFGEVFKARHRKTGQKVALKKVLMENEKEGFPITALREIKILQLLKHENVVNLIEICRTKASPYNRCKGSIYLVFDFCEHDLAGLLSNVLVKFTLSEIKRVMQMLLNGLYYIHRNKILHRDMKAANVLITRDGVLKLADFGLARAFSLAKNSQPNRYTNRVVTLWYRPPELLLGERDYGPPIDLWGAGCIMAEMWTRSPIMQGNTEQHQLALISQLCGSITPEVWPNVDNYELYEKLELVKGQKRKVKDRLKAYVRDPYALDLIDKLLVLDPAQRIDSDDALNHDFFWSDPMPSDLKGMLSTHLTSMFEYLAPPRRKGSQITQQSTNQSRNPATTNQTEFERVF
Chain of CDK9/T1 (O60563 whole entry partner): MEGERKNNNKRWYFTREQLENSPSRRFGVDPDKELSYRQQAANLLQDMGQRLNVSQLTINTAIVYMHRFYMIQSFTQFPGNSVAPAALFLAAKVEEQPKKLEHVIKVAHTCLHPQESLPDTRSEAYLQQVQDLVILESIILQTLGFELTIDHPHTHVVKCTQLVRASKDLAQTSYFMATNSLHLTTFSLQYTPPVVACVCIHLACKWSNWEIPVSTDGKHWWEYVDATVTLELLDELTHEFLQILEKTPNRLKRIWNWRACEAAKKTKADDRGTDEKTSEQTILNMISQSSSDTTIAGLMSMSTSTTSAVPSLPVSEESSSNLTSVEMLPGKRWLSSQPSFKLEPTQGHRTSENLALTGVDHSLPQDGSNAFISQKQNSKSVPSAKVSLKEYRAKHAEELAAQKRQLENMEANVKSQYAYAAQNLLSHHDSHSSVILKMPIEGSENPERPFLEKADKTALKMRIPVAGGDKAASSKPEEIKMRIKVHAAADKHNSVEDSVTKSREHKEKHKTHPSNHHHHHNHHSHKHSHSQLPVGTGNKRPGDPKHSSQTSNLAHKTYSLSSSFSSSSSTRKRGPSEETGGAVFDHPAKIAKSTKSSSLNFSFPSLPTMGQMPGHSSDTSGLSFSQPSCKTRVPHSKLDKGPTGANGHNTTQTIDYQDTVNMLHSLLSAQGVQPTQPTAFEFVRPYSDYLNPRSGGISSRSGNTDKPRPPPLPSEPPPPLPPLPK
Procedure: as §1

CDKs and other kinases [1] = target: T1, CDKs and other kinases (Homo sapiens, UniProt P06493); assay: Radiometric kinase assay (Eurofins Pharma Discovery or Reaction Biology Corporation Kinase Profiler); details: CDK1B; for Ki: read-out: CDK inhibition, Ki (μM) CDK1B; for remaining activity at 10 µM: compound at 10 μM, read-out: residual activity (%) at 10 μM CDK1B
T1 construct: other: CDK1B; residual activity (%) at 10 μM CDK1B; compound at 10 μM
T1 sequence (P06493 whole entry): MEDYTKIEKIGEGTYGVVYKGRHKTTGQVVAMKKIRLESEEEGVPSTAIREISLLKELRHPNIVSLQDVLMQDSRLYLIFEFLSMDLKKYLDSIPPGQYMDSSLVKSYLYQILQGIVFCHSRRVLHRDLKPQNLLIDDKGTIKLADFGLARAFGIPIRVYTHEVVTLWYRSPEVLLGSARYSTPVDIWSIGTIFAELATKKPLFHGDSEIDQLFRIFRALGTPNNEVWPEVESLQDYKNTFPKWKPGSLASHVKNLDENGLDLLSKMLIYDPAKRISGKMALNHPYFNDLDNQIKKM
Procedure: as §1

CDKs and other kinases [2] = target: T2, CDKs and other kinases (Homo sapiens, UniProt P24941); assay: as above; details: CDK2A; for Ki: read-out: CDK inhibition, Ki (μM) CDK2A; for remaining activity at 10 µM: compound at 10 μM, read-out: residual activity (%) at 10 μM CDK2A
T2 construct: other: CDK2A; residual activity (%) at 10 μM CDK2A; compound at 10 μM
Procedure: as §1

CDKs and other kinases [3] = target: T3, CDKs and other kinases (Homo sapiens, UniProt P50613); assay: as above; details: CDK7H; for Ki: read-out: CDK inhibition, Ki (μM) CDK7H; for remaining activity at 10 µM: compound at 10 μM, read-out: residual activity (%) at 10 μM CDK7H
T3 construct: other: CDK7H; residual activity (%) at 10 μM CDK7H; compound at 10 μM
T3 sequence (P50613 whole entry): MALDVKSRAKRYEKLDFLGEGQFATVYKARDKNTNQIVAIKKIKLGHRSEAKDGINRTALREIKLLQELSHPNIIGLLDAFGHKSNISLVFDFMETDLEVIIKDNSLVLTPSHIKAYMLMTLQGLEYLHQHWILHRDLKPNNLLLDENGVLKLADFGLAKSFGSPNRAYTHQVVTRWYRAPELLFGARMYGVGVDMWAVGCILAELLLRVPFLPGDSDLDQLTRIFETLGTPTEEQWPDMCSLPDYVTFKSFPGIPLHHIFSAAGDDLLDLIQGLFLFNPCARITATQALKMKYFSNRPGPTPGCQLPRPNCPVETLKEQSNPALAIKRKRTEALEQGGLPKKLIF
Procedure: as §1

Chain of CDK4/D1 (P11802 whole entry): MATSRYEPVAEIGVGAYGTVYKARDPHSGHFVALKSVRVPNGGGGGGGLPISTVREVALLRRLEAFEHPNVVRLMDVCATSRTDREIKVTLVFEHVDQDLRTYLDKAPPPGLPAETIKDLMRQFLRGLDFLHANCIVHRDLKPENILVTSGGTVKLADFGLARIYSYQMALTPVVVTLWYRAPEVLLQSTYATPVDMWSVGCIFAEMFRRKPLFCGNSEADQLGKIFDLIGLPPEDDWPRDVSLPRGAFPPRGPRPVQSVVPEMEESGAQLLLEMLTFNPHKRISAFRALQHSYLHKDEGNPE
Chain of CDK4/D1 (P24385 whole entry partner): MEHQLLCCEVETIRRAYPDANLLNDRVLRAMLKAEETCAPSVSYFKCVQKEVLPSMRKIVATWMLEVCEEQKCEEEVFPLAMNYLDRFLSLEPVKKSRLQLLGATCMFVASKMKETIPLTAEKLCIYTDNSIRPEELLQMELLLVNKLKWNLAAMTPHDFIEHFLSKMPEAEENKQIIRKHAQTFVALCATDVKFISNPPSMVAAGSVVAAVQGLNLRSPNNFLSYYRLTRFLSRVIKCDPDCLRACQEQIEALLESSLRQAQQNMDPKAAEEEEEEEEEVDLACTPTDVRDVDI

SMILES	remaining activity at 10 µM (CDK4/D1) [%]	Ki (CDK9/T1) [µM]	Ki (CDKs and other kinases [1]) [µM]	Ki (CDKs and other kinases [2]) [µM]	Ki (CDKs and other kinases [3]) [µM]	remaining activity at 10 µM (CDKs and other kinases [1]) [%]	remaining activity at 10 µM (CDKs and other kinases [2]) [%]	remaining activity at 10 µM (CDKs and other kinases [3]) [%]
Cc1cnc(N[C@H]2CC[C@H](N)CC2)nc1-c1cnc2ccc(Nc3ccc(F)nc3)cn12 [Compound 123, (1r,4r)-N^1-(4-(6-((6-Fluoropyridin-3-yl)amino)imidazo [1,2-a]pyridin-3-yl)-5-methylpyrimidin-2-yl)cyclohexane-1,4-diamine]	31	0.011	1.53	0.3	0.89			
CN[C@H]1CC[C@H](Nc2ncc(C)c(-c3cnc4ccc(-c5ccccc5)cn34)n2)CC1 [Compound 133, (1r,4r)-N^1-Methyl-N^4-(5-methyl-4-(6-phenylimidazo[1,2-a]pyridin-3-yl)pyrimidin-2-yl)cyclohexane-1,4-diamine]	60	0.14				22	40	10
Fc1cnc(NC2CCN(CC3CC3)CC2)nc1-c1cnc2ccc(-c3ccccc3)cn12 [Compound 145, N-(1-(Cyclopropylmethyl)piperidin-4-yl)-5-fluoro-4-(6-phenylimidazo[1,2-a]pyridin-3-yl)pyrimidin-2-amine]	41	0.402	0.222		0.199		22	
CCS(=O)(=O)N1CCC(Nc2ncc(F)c(-c3cnc4ccc(-c5ccccc5)cn34)n2)CC1 [Compound 163, N-(1-(Ethylsulfonyl)piperidin-4-yl)-5-fluoro-4-(6-phenylimidazo[1,2-a]pyridin-3-yl)pyrimidin-2-amine]	61	4.57					0	5
O[C@H]1CC[C@H](Nc2ncc(Cl)c(-c3cnc4ccc(-c5ccc(F)cc5)cn34)n2)CC1 [Compound 165, (1r,4r)-4-((5-Chloro-4-(6-(4-fluorophenyl)imidazo[1,2-a]pyridin-3-yl)pyrimidin-2-yl)amino)cyclohexan-1-ol]	61	0.93					51	24
O[C@H]1CC[C@H](Nc2ncc(Cl)c(-c3cnc4ccc(-c5cccnc5)cn34)n2)CC1 [Compound 166, (1r,4r)-4-((5-Chloro-4-(6-(pyridin-3-yl)imidazo[1,2-a]pyridin-3-yl)pyrimidin-2-yl)amino)cyclohexan-1-ol]	54	1.28					8	33
Cc1cnc(NC2CCC(N3CCNC(=O)C3)CC2)nc1-c1cnc2ccc(Nc3cncnc3)cn12 (centres unmarked) [Compound 168, 4-(4-((5-Methyl-4-(6-(pyrimidin-5-ylamino)imidazo [1,2-a]pyridin-3-yl)pyrimidin-2-yl)amino)cyclohexyl) piperazin-2-one]	22	0.181					11	55
CS(=O)(=O)N1CCC(Nc2ncc(F)c(-c3cnc4cc(-c5ccccc5)ccn34)n2)CC1 [Compound 171, 5-Fluoro-N-(1-(methylsulfonyl)piperidin-4-yl)-4-(7-phenylimidazo[1,2-a]pyridin-3-yl)pyrimidin-2-amine]	47	> 5					35	65
CNC(=O)N[C@H]1CC[C@H](Nc2ncc(C)c(-c3cnc4ccc(Nc5cncnc5)cn34)n2)CC1 [Compound 172, 1-Methyl-3-((1r,4r)-4-((5-methyl-4-(6-(pyrimidin-5-ylamino)imidazo[1,2-a]pyridin-3-yl)pyrimidin-2-yl)amino)cyclohexyl)urea]	6	0.005					2	21

Next, values leading:

remaining activity at 10 µM (CDK4/D1) [%]	Ki (CDK9/T1) [µM]	Ki (CDKs and other kinases [1]) [µM]	Ki (CDKs and other kinases [2]) [µM]	Ki (CDKs and other kinases [3]) [µM]	remaining activity at 10 µM (CDKs and other kinases [1]) [%]	remaining activity at 10 µM (CDKs and other kinases [2]) [%]	remaining activity at 10 µM (CDKs and other kinases [3]) [%]	SMILES
32	0.045				34	0	39	COc1ccc(Nc2ccc3ncc(-c4nc(N[C@H]5CC[C@H](N)CC5)ncc4C)n3c2)cn1 [Compound 127, (1r,4r)-N^1-(4-(6-((6-Methoxypyridin-3-yl)amino)imidazo [1,2-a]pyridin-3-yl)-5-methylpyrimidin-2-yl)cyclohexane-1,4-diamine]
32	0.12				42	0	18	COCCN[C@H]1CC[C@H](Nc2ncc(C)c(-c3cnc4ccc(-c5ccccc5)cn34)n2)CC1 [Compound 129, (1r,4r)-N^1-(2-Methoxyethyl)-N^4-(5-methyl-4-(6-phenylimidazo[1,2-a]pyridin-3-yl)pyrimidin-2-yl) cyclohexane-1,4-diamine]
11	0.12				43	22	28	Cc1cnc(N[C@H]2CC[C@H](N)CC2)nc1-c1cnc2ccc(Nc3ccncc3)cn12 [Compound 134, (1r,4r)-N^1-(5-Methyl-4-(6-(pyridin-4-ylamino)imidazo [1,2-a]pyridin-3-yl)pyrimidin-2-yl)cyclohexane-1,4-diamine]
14	0.044				31	4	15	Cc1cnc(N[C@H]2CC[C@H](N3CCC3)CC2)nc1-c1cnc2ccc(Nc3cncc(F)c3)cn12 [Compound 139, 3-(2-(((1r,4r)-4-(Azetidin-1-yl)cyclohexyl)amino)-5-methylpyrimidin-4-yl)-N-(5-fluoropyridin-3-yl)imidazo [1,2-a]pyridin-6-amine]
15	0.011	0.532	0.064				30	Cc1cnc(N[C@H]2CC[C@H](N3CCC3)CC2)nc1-c1cnc2ccc(Nc3cncnc3)cn12 [Compound 141, 3-(2-(((1r,4r)-4-(Azetidin-1-yl)cyclohexyl)amino)-5-methylpyrimidin-4-yl)-N-(pyrimidin-5-yl)imidazo [1,2-a]pyridin-6-amine]
43	0.061				31	11	20	Cc1cnc(N[C@H]2CC[C@H](N)CC2)nc1-c1cnc2cc(F)c(-c3ccccc3)cn12 [Compound 159, (1r,4r)-N^1-(4-(7-Fluoro-6-phenylimidazo[1,2-a]pyridin-3-yl)-5-methylpyrimidin-2-yl)cyclohexane-1,4-diamine]
0	0.014			0.099	3	7		CN1CCC(N[C@H]2CC[C@H](Nc3ncc(F)c(-c4cnc5ccc(-c6ccccc6)cn45)n3)CC2)CC1 [Compound 160, (1r,4r)-N^1-(5-Fluoro-4-(6-phenylimidazo[1,2-a]pyridin-3-yl)pyrimidin-2-yl)-N^4-(1-methylpiperidin-4-yl) cyclohexane-1,4-diamine]
66	0.49					4	49	COc1ccc(-c2ccc3ncc(-c4nc(N[C@H]5CC[C@H](O)CC5)ncc4Cl)n3c2)cn1 [Compound 167, (1r,4r)-4-((5-Chloro-4-(6-(6-methoxypyridin-3-yl)imidazo[1,2-a]pyridin-3-yl)pyrimidin-2-yl)amino) cyclohexan-1-ol]
81	1.88					31	35	CNC(=O)N[C@H]1CC[C@H](Nc2ncc(C)c(-c3cnc4ccc(-c5ccccc5)cn34)n2)CC1 [Compound 169, 1-Methyl-3-((1r,4r)-4-((5-methyl-4-(6-phenylimidazo [1,2-a]pyridin-3-yl)pyrimidin-2-yl)amino)cyclohexyl) urea]
5	> 5					7	18	Fc1cnc(NC2CCNCC2)nc1-c1cnc2cc(-c3ccccc3)ccn12 [Compound 170, 5-Fluoro-4-(7-phenylimidazo[1,2-a]pyridin-3-yl)-N-(piperidin-4-yl)pyrimidin-2-amine]
